Several values for one entry are separate records, joined by “and”; a condition that tells them apart may be missing. Identical values can stand only once.
Tests used:
[1] = system: Treg cells; assay: pSTAT5 concentration-response in human LRS-derived PBMC samples (flow cytometry): Treg cells; format: cell-based; conditions: Table 4; ratio of pSTAT5 EC50 values
Method: These studies were performed at PrimityBio LLC (Fremont, Calif.). […] Staining panel for flow cytometry study of LRS-derived PBMC samples include markers for Effector T cells (Teff: CD3+, CD4+, CD8+, CD127+), NK cells (CD3-, CD16+), and Regulatory T cells (Treg: CD3+, CD4+, CD8-, IL-2Rα+, CD127-1).
The EC50 values (pg/mL) was calculated from dose response curves generated from MFI plots.
These studies were performed at PrimityBio LLC (Fremont, Calif.). […] Staining panel for flow cytometry study of LRS-derived PBMC samples include markers CD4, CD4+ memory central, CD4+ memory effect, CD4+ memory T cells, CD4+ Naive T cells, CD4+ T cells, CD8, CD8+ memory central, CD8+ memory effect, CD8+ memory T cells, CD8+ Naive T cells, CD8+ T cells, NK cells, and T regulatory cells.
Conjugates of Table 12 were synthesized by modification of SEQ NO. 1. These studies were performed at PrimityBio LLC (Fremont, Calif.).
The EC50 values (pg/ml) were calculated from dose response curves generated from the MFI plots.

[2] = system: CT-26 colon tumors; assay: Efficacy in CT-26 tumor-bearing Balb/c mice, Studies 1-3 (tumor growth inhibition, survival); format: in vivo; conditions: for median survival time: Compound A 6 mg/kg QWx3, anti-PD-1 antibody 10 mg/kg BIWx3, or both
From the text: Studies of Compound A as monotherapy and in combination with an anti-PD-1 antibody were undertaken in Balb/c female mice. […] Balb/c female mice, 7-8 weeks of age, with an average weight of 18 to 22 g were purchased from Taconic Biosciences by HD Biosciences for study 3. Cryogenically preserved vials of CT-26 colon cancer cells were purchased from American Tissue Type Collection (ATCC, Manassas, Va.). Cells were thawed and cultured according to the manufacturer's protocol. On the day of tumor cell inoculation, cells were washed in serum-free media, counted, and resuspended in cold serum-free media at a concentration of 250,000 (studies 1 and 2) or 300,000 (study 3) viable cells per 0.1 mL. The CT-26 cells (0.1 mL) were injected subcutaneously into the flanks of individual mice and tumors were allowed to grow.
For studies 1 and 2 in which a combination of Compound A and an anti-PD-1 antibody were used, the antibody used was anti-mouse PD-1 (BioXcell; RMP1-14) and the control antibody was IgG1 isotype antibody (BioXcell; catalog #BP0089, lot #2A3). For study 3 in which an anti-PD-1 antibody was used, the antibody used was anti-mouse PD-1 (BioXcell; catalog #BP0146, RMP1-14, lot #695318A1) and the control antibody was IgG1 isotype antibody (BioXcell; catalog #BP0089, lot #2A3).
Lyophilized Compound A was reconstituted into 10 mg/mL stock with 0.1 M acetic acid. It was then further diluted into working concentration with 1× phosphate buffered saline (PBS). The compound was reconstituted and diluted within an hour of dosing of animals and kept on ice until dosing. The lyophilized compound was stored at −80° C. before use. Vehicle was stored at 4° C.
Three separate efficacy studies were performed using CT-26 tumor-bearing Balb/c mice. The design for study 1, which evaluated Compound A for dose-dependent efficacy as a single agent, is outlined in Table 19. The designs for studies 2 and 3, which evaluated the efficacy of Compound A in combination with an anti-PD-1 antibody, are outlined in Table 20 and Table 21, respectively. The route of administration for Compound A was intravenous (IV). IV dosing in the mice was done via the tail vein. The antibody was administered intraperitoneally (IP). All agents were administered based on the individual body weight of each animal obtained immediately prior to each dosing. Details on the dosing regimen are described below.
In Study 1, CT-26 tumor-bearing mice were treated with vehicle IV once a week for a total of 3 doses (QWx3) or Compound A at 0.3, 1, or 3 mg/kg IV, either once a week for a total of three doses (QWx3), or once every 2 weeks for a total of 2 doses (Q2Wx2), starting on Day 4 following tumor cell inoculation when the average tumor volume was ˜80 mm^3.
In Study 2, CT-26 tumor-bearing mice were treated on Day 5 following tumor cell inoculation when the average tumor volume was ˜80 mm^3. Dosing was with vehicle IV QWx3+ IgG isotype control IP or Compound A at 3 or 6 mg/kg IV, on a QWx3 dosing schedule, or anti-PD-1 antibody at 10 mg/kg IP, or the combination of Compound A at 6 mg/kg IV QWx3+ anti-PD-1 antibody at 10 mg/kg IP. The IP dosing of the antibody in all cases was twice a week for 3 weeks with a total of 6 doses (BIWx3).
In Study 3, CT-26 tumor-bearing mice were treated on Day 7 following tumor cell inoculation when the average tumor volume was ˜70 mm3. Dosing was with vehicle IV QWx3+ IgG isotype control IP BIWx3; or Compound A at 1, 3, 6, or 9 mg/kg IV on a QWx3 dosing schedule, or anti-PD-1 antibody at 10 mg/kg IP BIWx3; or the combination of Compound A at 1, 3, or 6 mg/kg IV QWx3+ anti-PD-1 antibody at 10 mg/kg IP BIWx3.
Animals were observed daily for clinical signs.
Tumor growth was monitored using digital caliper measurements every 3 to 4 days until the end of the study. Tumor volume was calculated as Width^2×Length/2, where width is the smallest dimension and length is the largest. Raw tumor volume data are presented in the study reports. […]

P65_30kD: SEQ ID NO: 25: IL-2 (SEQ ID NO: 4) with P65 replaced by AzK click-conjugated to methoxy linear 30 kDa PEG [Compound P65_30kD]
CD8/Treg ratio [1]: 2.8
median survival time ([2]; Study 2): 27 days
animals surviving ([2]; Study 3, Compound A 3 mg/kg, anti-PD-1 antibody 10 mg/kg, or both, day printed as 'Compound A days'): 0 of 14 animals
median survival time ([2]; Study 3): 35 days
animals surviving tumor-free ([2]; Study 3, Compound A 6 mg/kg, anti-PD-1 antibody 10 mg/kg, or both, day printed as 'Compound A days'): 0 of 14 animals
animals found dead following >15% body weight loss due to treatment ([2]; Study 3, Compound A 9 mg/kg IV QWx3): 2 of the 14 animals
% TGI (Relative to Vehicle Control) ([2]; Study #1, Compound A 0.3 mg/kg IV Q2Wx2, Day 15): 20%
% TGI (Relative to Vehicle Control) ([2]; Study #1, Compound A 0.3 mg/kg IV QWx3, Day 15, listed as Compound A, 0.3 mg/kg): 19%
% TGI (Relative to Vehicle Control) ([2]; Study #1, Compound A 1 mg/kg IV Q2Wx2, Day 15): 27%
% TGI (Relative to Vehicle Control) ([2]; Study #1, Compound A 1 mg/kg IV QWx3, Day 15, listed as Compound A, 1 mg/kg): 31%
% TGI (Relative to Vehicle Control) ([2]; Study #1, Compound A 3 mg/kg IV Q2Wx2, Day 15, listed as Compound A, 3 mg/kg): 45%
% TGI (Relative to Vehicle Control) ([2]; Study #1, Compound A 3 mg/kg IV QWx3, Day 15, listed as Compound A, 3 mg/kg): 52% and 51* %
% TGI (Relative to Vehicle Control) ([2]; Study #2, Compound A 3 mg/kg IV QWx3, listed as Compound A, 3 mg/kg): 56.3% and 56%
% TGI (Relative to Vehicle Control) ([2]; Study #2, Compound A 6 mg/kg IV QWx3, listed as Compound A, 6 mg/kg): 35.6% and 36* %
% TGI (Relative to Vehicle Control) ([2]; Study #3, Compound A 1 mg/kg IV QWx3, listed as Compound A, 1 mg/kg): 29.8% and 30%
% TGI (Relative to Vehicle Control) ([2]; Study #3, Compound A 3 mg/kg IV QWx3, listed as Compound A, 3 mg/kg): 58.8% and 59*** %
% TGI (Relative to Vehicle Control) ([2]; Study #3, Compound A 6 mg/kg IV QWx3, listed as Compound A, 6 mg/kg): 86.2% and 86*** %
% TGI (Relative to Vehicle Control) ([2]; Study #3, Compound A 9 mg/kg IV QWx3, listed as Compound A, 9 mg/kg): 84.8% and 85*** %

From patent US20210046160A1 (Synthorx, Inc., priority 2019, published 2021)
